Reference: patent US20230285405A1, “Pharmaceuticals for Treating or Preventing Nidoviruses and Picornaviruses” (priority 2020, published 2023)
Counter-ions that a name gives are not always drawn. Like-named read-outs stand apart in the source and are kept apart here.

Legend:
A549-mRuby cells = test: Drug screening: effect on cell growth (cell number day 4 / day 0); settings: 10 μM drug; for Growth_1: number of cells at day 4 divided by number of cells at day 0 / toxic_1: repeat #1; for Growth_2: number of cells at day 4 divided by number of cells at day 0 / toxic_2: repeat #2
Protocol: A549-mRuby cells were seeded (3,000 cells per well) in nine 384-well plates using Multidrop combi. Cells were seeded in a final volume of 30 μl with DMEM+10% BCS. The following day, 20 μl of OC43 were added (MOI 0.3) and incubated at 33° C., 5% CO2 for 1 hour. 50 nl from the Selleck FDA-approved drug library (cat #L1300, Selleck) were added (1:1,000 dilution). Two columns (32 wells) were left uninfected and two columns were treated with DMSO and virus (no drug control). Cells were imaged using the IncuCyte S3 to measure cell numbers at day 0. Cells were incubated for 4 days at 33° C., 5% CO2 and were stained for OC43 nucleoprotein. All the following steps were performed at room temperature. […] The screen was performed twice.
(§1) The following parameters were extracted from the images: number of cells at day 0, number of cells at day 4 and total OC43 staining intensity at day 4. For analysis, OC43 staining intensity was normalized to the number of cells in the well and further normalized to the mean of the no drug controls, which was set to 100. […] For each plate, a drug was considered as a putative hit if it reduced OC43 staining by over 3 standard deviations from the mean of the no drug controls. Drugs were considered hits if they were not toxic and reduced OC43 staining by over 3 standard deviations in both repeats.
(§2) A library of 1,900 clinically used drugs was screened, the drugs either approved for human use or having extensive safety data in humans (Phase 2 or 3 clinical trials), for their ability to inhibit OC43 infection of the human lung epithelial cell line A549 (expressing an H2B-mRuby nuclear reporter). One day after plating, cells were infected at an MOI of 0.3, incubated at 33° C. for 1 hour and drugs were added to a final concentration of 10 μM. Cells were then incubated at 33° C. for 4 days, fixed and stained for the presence of the viral nucleoprotein. The cells were imaged at day 0 (following drug addition) and day 4 (after staining) to determine the drugs effect on cell growth and OC43 infection.

OC43 = test: Drug screening: OC43 nucleoprotein staining in infected A549-mRuby cells; assay type: cell-based, human beta coronavirus OC43; settings: for activity at 10 µM: Betacoronavirus 1, OC43, 96 h
Protocol: A549-mRuby cells were seeded (3,000 cells per well) in nine 384-well plates using Multidrop combi. Cells were seeded in a final volume of 30 μl with DMEM+10% BCS. The following day, 20 μl of OC43 were added (MOI 0.3) and incubated at 33° C., 5% CO2 for 1 hour. 50 nl from the Selleck FDA-approved drug library (cat #L1300, Selleck) were added (1:1,000 dilution). Two columns (32 wells) were left uninfected and two columns were treated with DMSO and virus (no drug control). Cells were imaged using the IncuCyte S3 to measure cell numbers at day 0. Cells were incubated for 4 days at 33° C., 5% CO2 and were stained for OC43 nucleoprotein. All the following steps were performed at room temperature. Cells were fixed in 50 μl 4% PFA/PBS for 15 min, blocked with 50 μl 10% BSA+0.5% Triton X-100 in PBS for 30 minutes, stained with 50 μl anti-OC43 (cat #MAB9013, Milipore) diluted 1:2,000 in 2% BSA+0.1% Triton X-100 in PBS for 1 hour, washed with 50 μl PBS three times, stained with anti-mouse-AlexaFluor488 diluted 1:1,000 in 2% BSA+0.1% Triton X-100 in PBS for 1 hour, washed with 50 μl PBS three times and imaged on the IncuCyte S3 (day 4). The screen was performed twice.
as §1, §2

[1] = 10 μM drug, MOI 0.3, 4 days, normalized to no-drug controls in the same plate, repeat #1, read-out: OC43_1: % staining of OC43 in screen repeat #1
[2] = 10 μM drug, MOI 0.3, 4 days, normalized to no-drug controls in the same plate, repeat #2, read-out: OC43_2: % staining of OC43 in screen repeat #2
[3] = 10 μM drug, MOI 0.3, 4 days, OC43 staining normalized to no-drug controls, mean of the two screen repeats, read-out: OC43_mean
[4] = 10 μM drug, MOI 0.3, 4 days, OC43 staining normalized to no-drug controls, mean of the two screen repeats
[5] = 10 μM drug, MOI 0.3, 4 days, normalized to no-drug controls in the same plate, repeat #1
[6] = 10 μM drug, MOI 0.3, 4 days, normalized to no-drug controls in the same plate, repeat #2

Row | Compound | Growth_1: number of cells at day 4 divided by number of cells at day 0 (A549-mRuby cells) | toxic_1 (A549-mRuby cells) | Growth_2: number of cells at day 4 divided by number of cells at day 0 (A549-mRuby cells) | toxic_2 (A549-mRuby cells) | hit_1 (OC43; 10 μM drug, repeat #1) | hit_2 (OC43; 10 μM drug, repeat #2) | activity at 10 µM (OC43; [1]) | activity at 10 µM (OC43; [2]) | activity at 10 µM (OC43; read-out: OC43_mean) | activity at 10 µM (OC43; [3]) | Growth_1: number of cells at day 4 divided by number of cells at day 0 (A549-mRuby cells; Dihydrate) | Growth_2: number of cells at day 4 divided by number of cells at day 0 (A549-mRuby cells; Dihydrate) | OC43_mean (OC43; [4]) | OC43_1: % staining of OC43 in screen repeat #1 (OC43; [5]) | OC43_2: % staining of OC43 in screen repeat #2 (OC43; [6])
1 | CCN(CCCc1ccccc1)CCCc1ccccc1 [Alverine Citrate] | 3.7 | 0 | 4.0 | 0 | 1 | 1 | 22.1% | 35.3% | 28.7% |  |  |  |  |  | 
2 | CCCCc1oc2ccccc2c1C(=O)c1cc(I)c(OCCN(CC)CC)c(I)c1 [Amiodarone HCl] | 4.6 |  | 5.4 |  | 1 | 1 | 18.8% | 26.9% |  | 22.8% |  |  |  |  | 
3 | CN(C)CCC=C1c2ccccc2CCc2ccccc21 [Amitriptyline HCl] | 3.7 | 0 | 4.1 | 0 | 1 | 1 | 11.2% | 34.3% |  | 22.8% |  |  |  |  | 
4 | CN(C)N(C)C(=O)[C@@]1(Cc2ccccc2)CCCN(C(=O)[C@@H](Cc2c[nH]c3ccccc23)NC(=O)C(C)(C)N)C1 [Anamorelin] | 5.2 | 0 | 5.5 | 0 | 1 | 1 | 32% | 45.6% |  | 38.8% |  |  |  |  | 
5 | CC[C@H]1OC(=O)[C@H](C)[C@@H](O[C@H]2C[C@@](C)(OC)[C@@H](O)[C@H](C)O2)[C@H](C)[C@@H](O[C@@H]2O[C@H](C)C[C@H](N(C)C)[C@H]2O)[C@](C)(O)C[C@@H](C)CN(C)[C@H](C)[C@@H](O)[C@]1(C)O [Azithromycin Dihydrate] |  | 0 |  | 0 | 1 | 1 | 20.5% | 15.9% |  | 18.2% | 5.4 | 5.0 |  |  | 
6 | CC[C@H]1OC(=O)[C@H](C)[C@@H](O[C@H]2C[C@@](C)(OC)[C@@H](O)[C@H](C)O2)[C@H](C)[C@@H](O[C@@H]2O[C@H](C)C[C@H](N(C)C)[C@H]2O)[C@](C)(O)C[C@@H](C)CN(C)[C@H](C)[C@@H](O)[C@]1(C)O [Azithromycin] | 4.0 |  | 4.4 |  |  |  |  |  |  |  |  |  | 23.4% | 20.4% | 26.4%
7 | CCC(=O)OCC(=O)[C@@]1(OC(=O)CC)[C@@H](C)C[C@H]2[C@@H]3CCC4=CC(=O)C=C[C@]4(C)[C@@]3(Cl)[C@@H](O)C[C@@]21C [Beclomethasone dipropionate] | 3.4 | 0 | 4.6 | 0 | 1 | 1 | 38.3% | 29% |  | 33.6% |  |  |  |  | 
8 | CN1C2CCC1CC(OC(c1ccccc1)c1ccccc1)C2.CS(=O)(=O)O (centres unmarked) [Benztropine mesylate] | 4.4 | 0 | 5.1 | 0 | 1 | 1 | 7.4% | 12.8% |  | 10.1% |  |  |  |  | 
9 | CN(C)CCCOc1nn(Cc2ccccc2)c2ccccc12 [Benzydamine HCl] | 4.9 | 0 | 4.6 | 0 | 1 | 1 | 26.2% | 25.6% |  | 25.9% |  |  |  |  | 
10 | COc1ccc(NC(=O)c2ccc(C(=N)N(C)C)cc2)c(C(=O)Nc2ccc(Cl)cn2)c1 [Betrixaban maleate] | 4.6 | 0 | 5.7 | 0 | 1 | 1 | 32% | 21.8% |  | 26.9% |  |  |  |  | 
11 | COc1ccc(NC(=O)c2ccc(C(=N)N(C)C)cc2)c(C(=O)Nc2ccc(Cl)cn2)c1 [Betrixaban] | 5.3 | 0 | 5.5 | 0 | 1 | 1 |  |  |  |  |  |  | 32.0% | 30.2% | 33.7%
12 | CCCC1O[C@@H]2C[C@H]3[C@@H]4CCC5=CC(=O)C=C[C@]5(C)[C@H]4[C@@H](O)C[C@]3(C)[C@]2(C(=O)CO)O1 (some centres unmarked) [Budesonide] | 3.9 | 0 | 4.0 | 0 | 1 | 1 | 20.8% | 36.9% |  | 28.8% |  |  |  |  | 
13 | COc1ccccc1OCCNCC(O)COc1cccc2[nH]c3ccccc3c12 (centres unmarked) [Carvedilol] | 4.5 | 0 | 3.1 | 0 | 1 | 1 | 20.1% | 29.1% |  | 24.6% |  |  |  |  | 
14 | CCN(CC)CCCC(C)Nc1ccnc2cc(Cl)ccc12 (centres unmarked) [Chloroquine Phosphate] |  | 0 |  | 0 | 1 | 1 | 11.3% | 13.1% | 12.2% |  |  |  |  |  | 
15 | CCCCOc1cc(C(=O)NCCN(CC)CC)c2ccccc2n1 [Cinchocaine] | 4.3 | 0 | 4.2 | 0 | 1 | 1 | 18.9% | 64.3% |  | 41.6% |  |  |  |  | 
16 | COc1cc(N)c(Cl)cc1C(=O)NC1CCN(CCCOc2ccc(F)cc2)CC1OC (centres unmarked) [Cisapride] | 4.1 | 0 | 4.5 | 0 | 1 | 1 | 28.5% | 22.1% |  | 25.3% |  |  |  |  | 
17 | C=C[C@H]1C[N@@]2CC[C@H]1C[C@@H]2[C@@H](O)c1ccnc2ccc(OC)cc12 [Quinidine sulfate] |  |  |  |  | 1 | 1 | 25.1% | 47.9% |  |  |  |  |  |  | 
